#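 Where inhibition never reached the appropriate level, the endpoint shown equals the highest concentration tested. Otherwise, values were interpolated linearly from a five-concentration, 48-hour dose response in 96-well plates. TGI: concentration producing complete growth inhibition.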
# Assays:
# Test in all cases: NCI anticancer screen, dose series, 48 h
# [1] = tested on: RXF 393 renal
# [2] = tested on: NCI-H226 lung
# [3] = tested on: OVCAR-8 ovarian
# [4] = tested on: ACHN renal
# [5] = tested on: K-562 leukemia
# [6] = tested on: SR leukemia
# [7] = tested on: IGROV1 ovarian
# [8] = tested on: M14 melanoma
# [9] = tested on: LOX IMVI melanoma
# [10] = tested on: NCI-H522 lung
# [11] = tested on: OVCAR-3 ovarian
# [12] = tested on: SNB-19 CNS
# [13] = tested on: CAKI-1 renal
# [14] = tested on: UACC-257 melanoma
# [15] = tested on: SN12C renal
# [16] = tested on: A498 renal
# [17] = tested on: HCC-2998 colon
# [18] = tested on: HL-60(TB) leukemia
# [19] = tested on: NCI-H23 lung
# [20] = tested on: MOLT-4 leukemia
# [21] = tested on: OVCAR-5 ovarian
# [22] = tested on: U251 CNS
# [23] = tested on: OVCAR-4 ovarian
# [24] = tested on: COLO 205 colon
# [25] = tested on: NCI-H460 lung
# [26] = tested on: RPMI-8226 leukemia
# [27] = tested on: TK-10 renal
# [28] = tested on: EKVX NSCLC
# [29] = tested on: HOP-92 NSCLC
# [30] = tested on: SF-268 CNS
# [31] = tested on: HS 578T breast
# [32] = tested on: UO-31 renal
# [33] = tested on: SK-MEL-2 melanoma
# [34] = tested on: MCF7 breast
# [35] = tested on: 786-0 renal
# [36] = tested on: MALME-3M melanoma
# [37] = tested on: PC-3 prostate
# [38] = tested on: HOP-62 NSCLC
# [39] = tested on: SF-539 CNS
# [40] = tested on: SK-MEL-5 melanoma
# [41] = tested on: T-47D breast
# [42] = tested on: HCT-15 colon
# [43] = tested on: NCI/ADR-RES ovarian
# [44] = tested on: HT29 colon
# [45] = tested on: SF-295 CNS
# [46] = tested on: MDA-N
# [47] = tested on: MDA-MB-435
# [48] = tested on: SW-620 colon
# [49] = tested on: HCT-116 colon
# [50] = tested on: A549 NSCLC
# [51] = tested on: SNB-75 CNS
# [52] = tested on: MDA-MB-231 breast
# [53] = tested on: DU-145 prostate
# [54] = tested on: CCRF-CEM leukemia
# [55] = tested on: SK-OV-3 ovarian
# [56] = tested on: SK-MEL-28 melanoma
# [57] = tested on: UACC-62 melanoma
# [58] = tested on: BT-549 breast
# [59] = tested on: KM12 colon
smiles,measurement,setting,value
CCOC(=O)C(=CNc1ccc(S(N)(=O)=O)cc1)C(=O)OCC,TGI,[1],> 100 µM
same,TGI,[2],> 100 µM
same,TGI,[3],> 100 µM
same,TGI,[4],> 100 µM
same,TGI,[5],> 100 µM
same,TGI,[6],> 100 µM
same,TGI,[7],> 100 µM
same,TGI,[8],> 100 µM
same,TGI,[9],> 100 µM
same,TGI,[10],> 100 µM
same,TGI,[11],> 100 µM
same,TGI,[12],> 100 µM
same,TGI,[13],> 100 µM
same,TGI,[14],> 100 µM
same,TGI,[15],> 100 µM
same,TGI,[16],> 100 µM
same,TGI,[17],> 100 µM
same,TGI,[18],> 100 µM
same,TGI,[19],> 100 µM
same,TGI,[20],> 100 µM
same,TGI,[21],> 100 µM
same,TGI,[22],> 100 µM
same,TGI,[23],> 100 µM
same,TGI,[24],> 100 µM
same,TGI,[25],> 100 µM
same,TGI,[26],> 100 µM
same,TGI,[27],> 100 µM
same,TGI,[28],> 100 µM
same,TGI,[29],> 100 µM
same,TGI,[30],> 100 µM
same,TGI,[31],> 100 µM
same,TGI,[32],> 100 µM
same,TGI,[33],> 100 µM
same,TGI,[34],> 100 µM
same,TGI,[35],> 100 µM
same,TGI,[36],> 100 µM
same,TGI,[37],> 100 µM
same,TGI,[38],> 100 µM
same,TGI,[39],> 100 µM
same,TGI,[40],> 100 µM
same,TGI,[41],> 100 µM
same,TGI,[42],> 100 µM
same,TGI,[43],> 100 µM
same,TGI,[44],> 100 µM
same,TGI,[45],> 100 µM
same,TGI,[46],> 100 µM
same,TGI,[47],> 100 µM
same,TGI,[48],> 100 µM
same,TGI,[49],> 100 µM
same,TGI,[50],> 100 µM
same,TGI,[51],> 100 µM
same,TGI,[52],> 100 µM
same,TGI,[53],> 100 µM
same,TGI,[54],> 100 µM
same,TGI,[55],> 100 µM
same,TGI,[56],> 100 µM
C/C1=C\[C@@H](C)C[C@@H](C)OC(=O)[C@@H](C)NC(=O)[C@H](Cc2ccc(O)c(Br)c2)N(C)C(=O)CNC(=O)[C@H](C)C1,TGI,[57],> 55.1 µM
same,TGI,[1],< 0.0429 µM
same,TGI,[58],2.16 µM
same,TGI,[3],> 40.4 µM
same,TGI,[4],0.249 µM
same,TGI,[5],> 100 µM
same,TGI,[7],0.033 µM
same,TGI,[8],> 100 µM
same,TGI,[9],< 0.01 µM
same,TGI,[11],0.0243 µM
same,TGI,[12],> 100 µM
same,TGI,[14],27.2 µM
same,TGI,[15],> 100 µM
same,TGI,[16],< 0.021 µM
same,TGI,[17],70.1 µM
same,TGI,[18],< 0.01 µM
same,TGI,[20],> 64.1 µM
same,TGI,[21],> 100 µM
same,TGI,[22],5.34 µM
same,TGI,[24],> 100 µM
same,TGI,[25],> 69.1 µM
same,TGI,[26],56.1 µM
same,TGI,[27],0.26 µM
same,TGI,[29],0.0993 µM
same,TGI,[30],1.89 µM
same,TGI,[31],0.69 µM
same,TGI,[32],0.127 µM
same,TGI,[33],25.6 µM
same,TGI,[34],> 100 µM
same,TGI,[35],5.84 µM
same,TGI,[36],9.83 µM
same,TGI,[37],5.04 µM
same,TGI,[39],0.677 µM
same,TGI,[40],> 52.8 µM
same,TGI,[42],44.2 µM
same,TGI,[43],> 57 µM
same,TGI,[59],> 100 µM
same,TGI,[44],> 100 µM
same,TGI,[45],5.55 µM
same,TGI,[46],> 100 µM
same,TGI,[47],> 44.3 µM
same,TGI,[48],> 100 µM
same,TGI,[49],> 55.2 µM
same,TGI,[50],> 100 µM
same,TGI,[51],< 0.01 µM
same,TGI,[52],5.34 µM
same,TGI,[53],> 100 µM
same,TGI,[54],< 0.01 µM
same,TGI,[55],5.26 µM
same,TGI,[56],17.3 µM
